These results are taken from PubChem BioAssay (NCI).

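These data come from cells grown in 96-well plates and exposed to compound for 48 hours at five concentrations. GI50 = concentration required for 50% inhibition of growth. TGI denotes the concentration required for complete inhibition of growth.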 Some results are limits rather than exact numbers.

Among the test systems are TK-10 renal; OVCAR-3 ovarian; MALME-3M melanoma; A549 NSCLC; KM12 colon; RXF 393 renal; M14 melanoma; ACHN renal; NCI-H460 lung; NCI/ADR-RES ovarian.
What all share (assay): NCI-60 cell line screen, 48 h

For the molecule `O=C(O)C[C@@H](Cl)[C@H](NC(=O)OCc1ccccc1)C(=O)O`, the TGI in the assay with TK-10 renal, in the assay on OVCAR-3 ovarian, in the assay on MALME-3M melanoma, in the assay on A549 NSCLC, with KM12 colon and with RXF 393 renal was greater than 100 µM throughout. Moreover, the TGI in the assay on M14 melanoma, with ACHN renal and in the assay with NCI-H460 lung was greater than 100 µM in each case.
As to `CCC[CH2][Sn]([CH2]CCC)([O]c1cccc2cccnc12)[O]c1cccc2cccnc12`, the GI50 in the assay with TK-10 renal was 0.492 µM; in the assay on OVCAR-3 ovarian, 0.167 µM; in the assay with A549 NSCLC, 1.26 µM; in the assay on M14 melanoma, 0.186 µM; with ACHN renal, 0.458 µM; in the assay with NCI-H460 lung, 0.382 µM. Moreover, the TGI with TK-10 renal stood at 1.66 µM; in the assay with OVCAR-3 ovarian, 0.324 µM; in the assay with A549 NSCLC, 2.92 µM; in the assay with M14 melanoma it was 0.369 µM; with ACHN renal, 0.853 µM; in the assay on NCI-H460 lung it was 1.17 µM.
For `CCC(=O)N1C(=O)OCC1C(C)C` (centres undefined), the TGI in the assay with TK-10 renal, in the assay with OVCAR-3 ovarian, in the assay with MALME-3M melanoma, with A549 NSCLC, in the assay on KM12 colon and in the assay with RXF 393 renal was greater than 100 µM each time. The TGI in the assay on M14 melanoma, in the assay on ACHN renal and in the assay with NCI-H460 lung was greater than 100 µM throughout.
For the molecule `O=C1C(=O)N(c2ccc(Cl)cc2)C(=O)C(=O)C1c1nc2ccccc2o1`, the TGI in the assay on TK-10 renal, in the assay with OVCAR-3 ovarian, in the assay on MALME-3M melanoma, in the assay with A549 NSCLC, in the assay on KM12 colon and in the assay with RXF 393 renal was greater than 100 µM throughout. Further, the TGI with M14 melanoma, in the assay with ACHN renal and with NCI-H460 lung was greater than 100 µM in each case.
In the case of `O=S(=O)([O-])c1ccc(N=Cc2ccccc2[O-])cc1.O=S(=O)([O-])c1ccc(N=Cc2ccccc2[O-])cc1.[Co+2]`, the GI50 with TK-10 renal was greater than 100 µM; with MALME-3M melanoma, greater than 100 µM; in the assay with A549 NSCLC it was greater than 100 µM; in the assay with KM12 colon, greater than 100 µM; with RXF 393 renal, greater than 100 µM; in the assay with M14 melanoma it was 79.6 µM. Also, the GI50 in the assay with ACHN renal was greater than 100 µM. Moreover, the TGI with TK-10 renal, in the assay on MALME-3M melanoma, with A549 NSCLC, with KM12 colon, with RXF 393 renal and in the assay on M14 melanoma was greater than 100 µM in each case. In the assay on ACHN renal, this molecule registered a TGI greater than 100 µM.
As for `COC(OC)c1cc2c(cc1C=O)OCO2`, the TGI in the assay on TK-10 renal is greater than 100 µM; in the assay on OVCAR-3 ovarian, greater than 100 µM; with MALME-3M melanoma, 96.5 µM; in the assay on A549 NSCLC, greater than 100 µM; in the assay with KM12 colon it was greater than 100 µM; with RXF 393 renal, greater than 100 µM. Moreover, the TGI in the assay with M14 melanoma, with ACHN renal and in the assay on NCI-H460 lung was greater than 100 µM in each case.
For `C[C@]12CCC(=O)C(OC(=O)c3ccc([N+](=O)[O-])cc3)=C1CCC2=O`, the TGI with TK-10 renal, in the assay with OVCAR-3 ovarian, with MALME-3M melanoma, in the assay with A549 NSCLC, in the assay with KM12 colon and in the assay on RXF 393 renal was greater than 100 µM each time. Also, the TGI in the assay with M14 melanoma, with ACHN renal and in the assay with NCI-H460 lung was greater than 100 µM in each case.
With `COc1ccc(/C(=N\NC(=O)NN)C(c2ccc(OC)cc2)C2(O)C(=O)Nc3c(Cl)cc(Cl)cc32)cc1` (centres undefined), the TGI in the assay on TK-10 renal, with OVCAR-3 ovarian, in the assay on MALME-3M melanoma, in the assay with A549 NSCLC, in the assay on KM12 colon and with RXF 393 renal was greater than 100 µM in each case. Further, the TGI in the assay with M14 melanoma, in the assay on ACHN renal and in the assay on NCI-H460 lung was greater than 100 µM each time.
In the case of `Cc1ccc(-c2nc3ccccc3c(=O)n2NCC2(O)OCC(O)C(O)C2O)cc1` (centres undefined), the TGI in the assay on OVCAR-3 ovarian, in the assay on MALME-3M melanoma, in the assay with A549 NSCLC, in the assay with KM12 colon, in the assay with RXF 393 renal and in the assay on M14 melanoma was greater than 100 µM in each case. Besides, the TGI in the assay on ACHN renal and in the assay on NCI-H460 lung was greater than 100 µM throughout.
For `CC1=CC(C)=NN=C(N)N1S(=O)(=O)c1cc(C)c(Cl)cc1SCc1ccccc1`, the GI50 is greater than 100 µM in the assay with TK-10 renal; 22.6 µM with OVCAR-3 ovarian; 49.1 µM in the assay on MALME-3M melanoma; 31.3 µM in the assay on A549 NSCLC; 34.6 µM in the assay with KM12 colon; 8.71 µM in the assay with NCI/ADR-RES ovarian. In addition, the GI50 with M14 melanoma is 21.4 µM; in the assay with ACHN renal, 24.4 µM; in the assay with NCI-H460 lung, 9.22 µM. For the same molecule, the TGI in the assay with TK-10 renal, in the assay on OVCAR-3 ovarian, with MALME-3M melanoma, with A549 NSCLC, in the assay with KM12 colon and in the assay with NCI/ADR-RES ovarian was greater than 100 µM each time. Also, the TGI with M14 melanoma, in the assay with ACHN renal and in the assay on NCI-H460 lung was greater than 100 µM in each case.
Take `N#CC(/C(CCC(=O)Nc1ccc(Cl)cc1)=N/NC(=O)c1cc2ccccc2cc1O)c1ccccc1` (centres undefined): the TGI with TK-10 renal, in the assay with OVCAR-3 ovarian, in the assay on MALME-3M melanoma, with A549 NSCLC, in the assay on KM12 colon and in the assay on RXF 393 renal was greater than 100 µM in each case. Further, the TGI in the assay on M14 melanoma, in the assay on ACHN renal and in the assay with NCI-H460 lung was greater than 100 µM in each case.
As for `COC(=O)c1ccccc1N(C(=O)c1ccccc1)c1ccccc1C`, the TGI in the assay on TK-10 renal is greater than 100 µM; with OVCAR-3 ovarian, greater than 100 µM; with MALME-3M melanoma, greater than 100 µM; in the assay with A549 NSCLC it was greater than 100 µM; with KM12 colon, greater than 100 µM; with RXF 393 renal it was 92.1 µM. Further, the TGI in the assay with M14 melanoma was 73.1 µM; in the assay on ACHN renal, greater than 100 µM; in the assay with NCI-H460 lung, greater than 100 µM.
`Cc1n[nH]c(=S)n(C)c1=S`: the TGI in the assay on TK-10 renal, with OVCAR-3 ovarian, in the assay on MALME-3M melanoma, in the assay on A549 NSCLC, in the assay with RXF 393 renal and in the assay with M14 melanoma was greater than 100 µM throughout. Further, the TGI in the assay with ACHN renal and with NCI-H460 lung was greater than 100 µM in each case.
Consider `COc1cc(/C=C(\NC(=O)c2ccccc2)c2nc3ccc4c(c3[nH]2)C(=O)c2ccccc2C4=O)cc(OC)c1OC`, for which the TGI was greater than 100 µM in the assay with TK-10 renal; greater than 100 µM in the assay with OVCAR-3 ovarian; greater than 100 µM in the assay on MALME-3M melanoma; greater than 100 µM in the assay with A549 NSCLC; greater than 100 µM in the assay with KM12 colon; 86.8 µM with RXF 393 renal. In the assay with M14 melanoma, this molecule yielded a TGI greater than 100 µM.
